Results published in ChEMBL document CHEMBL1135173, “Discovery of substituted 3,4-diphenyl-thiazoles as a novel class of monoamine transporter inhibitors through 3-D pharmacophore search using a new pharmacophore model derived from mazindol” (Bioorg Med Chem Lett, 2002).

Columns and labels:
[1] = target: Norepinephrine transporter (Rattus norvegicus) (UniProt Q9WTR4); experiment: Selectivity ratio towards Norepinephrine and to that of dopamine transporter
[2] = target: Norepinephrine transporter (Rattus norvegicus) (UniProt Q9WTR4); experiment: Selectivity ratio towards Norepinephrine and to that of serotonin transporter
[3] = target: Sodium-dependent serotonin transporter (Rattus norvegicus, UniProt P31652); experiment: Compound was tested for the inhibition of serotonin [3H]SER reuptake into rat forebrain membranes; type: cell membranes, Membrane
Rattus norvegicus [4] = organism: Rattus norvegicus; experiment: Compound was tested for the inhibition of [3H]-DA reuptake into rat striatal tissue; type: functional, Striatum
[5] = target: Monoamine transporters; serotonin & dopamine (Rattus norvegicus) (UniProt P31652+P23977); experiment: Selectivity ratio towards Serotonin and to that of dopamine transporter; type: protein assay
[6] = target: Sodium-dependent dopamine transporter (Rattus norvegicus, UniProt P23977); experiment: Tested for the ability to displace [3H]WIN-35 428 binding to dopamine transporter (DAT) in rat striatal tissue; type: tissue-based, Striatum
[7] = target: Norepinephrine transporter (Rattus norvegicus, UniProt Q9WTR4); experiment: Compound was tested for the inhibition of norepinephrine [3H]NE reuptake into rat cortical membranes; type: cell membranes, Membrane
Rattus norvegicus [8] = organism: Rattus norvegicus; experiment: Compound was tested for the inhibition of [3H]DA reuptake into dopamine transporter in rat striatal tissue; type: functional, Striatum

Sodium-dependent serotonin transporter, sequence (P31652 whole entry): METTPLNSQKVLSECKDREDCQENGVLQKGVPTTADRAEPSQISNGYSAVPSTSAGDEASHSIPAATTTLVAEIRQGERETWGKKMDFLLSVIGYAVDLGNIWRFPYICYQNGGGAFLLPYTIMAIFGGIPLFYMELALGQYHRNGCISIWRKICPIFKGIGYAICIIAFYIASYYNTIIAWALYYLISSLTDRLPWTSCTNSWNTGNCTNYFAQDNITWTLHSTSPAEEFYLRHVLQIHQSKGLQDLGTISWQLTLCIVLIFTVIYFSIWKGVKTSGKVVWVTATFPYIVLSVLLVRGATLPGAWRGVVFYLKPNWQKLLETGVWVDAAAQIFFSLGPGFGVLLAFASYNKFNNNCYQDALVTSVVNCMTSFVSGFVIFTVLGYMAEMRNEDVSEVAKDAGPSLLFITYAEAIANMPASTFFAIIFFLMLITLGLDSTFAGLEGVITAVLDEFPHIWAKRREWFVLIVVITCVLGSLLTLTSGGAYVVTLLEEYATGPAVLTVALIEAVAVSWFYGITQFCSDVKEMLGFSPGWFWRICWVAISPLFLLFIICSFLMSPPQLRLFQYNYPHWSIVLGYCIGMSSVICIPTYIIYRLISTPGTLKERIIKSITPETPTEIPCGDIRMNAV
Sodium-dependent dopamine transporter, sequence (P23977 whole entry): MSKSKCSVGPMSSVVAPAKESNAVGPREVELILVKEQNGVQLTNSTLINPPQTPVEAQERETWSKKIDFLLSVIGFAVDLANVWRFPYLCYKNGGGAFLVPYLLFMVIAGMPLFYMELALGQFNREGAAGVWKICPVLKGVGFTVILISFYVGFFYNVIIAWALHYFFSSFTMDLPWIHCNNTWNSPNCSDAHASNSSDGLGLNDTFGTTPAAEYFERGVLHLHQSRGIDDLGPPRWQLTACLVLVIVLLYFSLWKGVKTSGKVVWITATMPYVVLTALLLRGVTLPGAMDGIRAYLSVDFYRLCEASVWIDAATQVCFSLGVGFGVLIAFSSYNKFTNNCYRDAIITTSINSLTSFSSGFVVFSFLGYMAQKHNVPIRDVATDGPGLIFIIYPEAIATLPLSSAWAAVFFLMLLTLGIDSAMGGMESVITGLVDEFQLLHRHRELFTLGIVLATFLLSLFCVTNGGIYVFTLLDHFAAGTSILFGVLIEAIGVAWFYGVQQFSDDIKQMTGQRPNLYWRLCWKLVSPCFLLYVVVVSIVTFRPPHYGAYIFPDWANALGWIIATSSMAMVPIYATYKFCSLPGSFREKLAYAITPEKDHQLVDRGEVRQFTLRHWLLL
Monoamine transporters; serotonin & dopamine (Rattus norvegicus), sequence (P23977 whole entry, looked up): as the sequence (P23977 whole entry) above
Monoamine transporters; serotonin & dopamine (Rattus norvegicus), sequence (P31652 whole entry, looked up): as the sequence (P31652 whole entry) above
Norepinephrine transporter, sequence (Q9WTR4 whole entry): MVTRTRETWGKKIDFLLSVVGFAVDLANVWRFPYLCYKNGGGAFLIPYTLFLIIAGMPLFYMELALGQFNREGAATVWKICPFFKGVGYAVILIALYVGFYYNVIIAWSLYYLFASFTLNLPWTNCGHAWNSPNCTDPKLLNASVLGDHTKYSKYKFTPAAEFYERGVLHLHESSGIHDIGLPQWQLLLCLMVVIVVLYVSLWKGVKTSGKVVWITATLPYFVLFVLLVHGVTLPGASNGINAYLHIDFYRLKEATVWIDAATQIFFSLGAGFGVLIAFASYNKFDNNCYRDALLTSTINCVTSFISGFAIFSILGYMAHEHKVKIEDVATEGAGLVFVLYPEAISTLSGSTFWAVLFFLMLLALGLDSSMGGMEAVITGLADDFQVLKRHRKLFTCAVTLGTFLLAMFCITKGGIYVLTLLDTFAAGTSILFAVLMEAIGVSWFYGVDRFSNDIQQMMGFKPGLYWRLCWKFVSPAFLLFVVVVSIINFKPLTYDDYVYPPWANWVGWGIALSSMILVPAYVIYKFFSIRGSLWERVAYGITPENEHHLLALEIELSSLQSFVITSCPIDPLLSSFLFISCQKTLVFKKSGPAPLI
Norepinephrine transporter (Rattus norvegicus), sequence (Q9WTR4 as listed by the source): as the sequence (Q9WTR4 whole entry) above

Row | Compound | Selectivity ratio [1] | Selectivity ratio [2] | Ki [3] [µM] | Ki (Rattus norvegicus [4]) [µM] | Selectivity ratio [5] | Ki [6] [µM] | Ki [7] [µM] | Ki (Rattus norvegicus [8]) [µM]
1 | N=c1scc(-c2ccc(Cl)cc2)n1-c1ccc(Cl)cc1Cl | 0.55 | 0.17 | 0.843 | 0.254 | 3.32 | 0.533 | 0.141 | –
2 | Cc1cc(-c2csc(=N)n2-c2ccc(Cl)cc2)ccc1Cl | 4.1 | 0.44 | 0.225 | 0.023 | 9.4 | 0.024 | 0.099 | –
3 | Cc1cc(-n2c(-c3c(F)cccc3F)csc2=N)ccc1Cl | 0.84 | 0.2 | 0.433 | 0.102 | 4.25 | 0.048 | 0.086 | –
4 | CC1C(=O)N=CC(c2ccccc2)=C1c1ccccc1 (stereo not drawn) | – | – | – | – | – | > 1 | – | –
5 | N=c1scc(-c2ccc(Cl)cc2)n1-c1ccccc1N1CCOCC1 | 0.29 | 52.1 | 0.424 | – | 0.006 | 42 | 22.1 | 76.4
6 | c1ccc(-c2nccnc2-c2ccccc2)cc1 | – | – | – | – | – | > 1 | – | –
7 | N=c1scc(-c2ccc(Cl)cc2)n1-c1ccccc1F | 0.17 | 0.026 | 1.41 | 0.21 | 6.69 | 0.189 | 0.036 | –
8 | N=c1scc(-c2ccc(Cl)cc2)n1-c1cccc(C(F)(F)F)c1 | 0.26 | 0.065 | 0.398 | 0.101 | 3.94 | 0.086 | 0.026 | –
9 | N=c1scc(-c2ccc(Br)cc2)n1-c1cccc(C(F)(F)F)c1 | 1.17 | 2.09 | 0.067 | 0.12 | 0.56 | 0.071 | 0.14 | –
10 | Cc1ccc(-c2csc(=N)n2-c2ccc(Cl)cc2)cc1 | 4.68 | 0.31 | 2.62 | 0.171 | 15.3 | 0.124 | 0.801 | –
